Species on record: Rattus norvegicus
Assay: Open TG-GATES - Regimen: Single
Type: toxicity, organism-based, Sprague-Dawley
Design: regimen Single, gender Male, age 6 weeks
Conditions: in vivo, po, 0 mg/kg, route gavage, dose level Control; for APTT / Bas / Eos / Fbg / Hb / Ht / Lym / MCH / MCHC / MCV / Mono / Neu / PT / Plat / RBC / Ret / WBC: tissue Blood; for KIDNEY_L / KIDNEY_R / KIDNEY_TOTAL: tissue Kidney; for LIVER: tissue Liver; for A/G / ALP / ALT / AST / BUN / CRE / Ca / Cl / DBIL / GLC / IP / K / LDH / Na / PL / RALB / TBIL / TC / TG / TP / gamma-GTP: tissue Plasma

With `CC(S)C(=O)NCC(=O)O` (configuration not stated) [TIOPRONIN] the TERMINAL_BW (3 h) was 208.8 g, the APTT (3 h) was 22.5 s and the Bas (3 h) was 0%. It also gave an Eos (3 h) of 0.8%, a Fbg (3 h) of 292.4 mg/dL and a Hb (3 h) of 13.1 g/dL. For the same molecule, the Ht (3 h) was 40.4%, the Lym (3 h) was 81.6% and the MCH (3 h) was 20.2 pg. The MCHC (3 h) was 32.5%, the MCV (3 h) was 62.3 fL and the Mono (3 h) was 1.4%. It also gave a Neu (3 h) of 15.8%, a PT (3 h) of 16.1 s and a Plat (3 h) of 120.4 x10_4/uL. It also gave an RBC (3 h) of 649.6 x10_4/ul, a Ret (3 h) of 7.5% and a WBC (3 h) of 75.2 x10_2/uL. For the same molecule, the KIDNEY_L (3 h) was 0.9 g, the KIDNEY_R (3 h) was 0.9 g and the KIDNEY_TOTAL (3 h) was 1.8 g. The LIVER (3 h) was 9.1 g, the A/G (3 h) was 1.2 and the ALP (3 h) was 2032.2 IU/L. For the same molecule, the ALT (3 h) was 46 IU/L, the AST (3 h) was 80.4 IU/L and the BUN (3 h) was 11.4 mg/dL. It also gave a CRE (3 h) of 0.1 mg/dL, a Ca (3 h) of 10.7 mg/dL and a Cl (3 h) of 107 meq/L. It also gave a DBIL (3 h) of 0.002 mg/dL, a GLC (3 h) of 190.8 mg/dL and an IP (3 h) of 7.7 mg/dL. The K (3 h) was 4.1 meq/L, the LDH (3 h) was 203.8 IU/L and the Na (3 h) was 143.8 meq/L. The PL (3 h) was 128.6 mg/dL, the RALB (3 h) was 2.9 g/dL and the TBIL (3 h) was 0.02 mg/dL. It also gave a TC (3 h) of 70.8 mg/dL, a TG (3 h) of 65.4 mg/dL and a TP (3 h) of 5.4 g/dL. For the same molecule, the gamma-GTP (3 h) was 1.8 IU/L, the TERMINAL_BW (6 h) was 208.1 g and the APTT (6 h) was 21.5 s. The Bas (6 h) was 0%, the Eos (6 h) was 0.2% and the Fbg (6 h) was 295.4 mg/dL. For the same molecule, the Hb (6 h) was 13 g/dL, the Ht (6 h) was 39.8% and the Lym (6 h) was 83%. The MCH (6 h) was 21 pg, the MCHC (6 h) was 32.8% and the MCV (6 h) was 64.1 fL. The Mono (6 h) was 1.8%, the Neu (6 h) was 14.2% and the PT (6 h) was 15.8 s. For the same molecule, the Plat (6 h) was 116.3 x10_4/uL, the RBC (6 h) was 621 x10_4/ul and the Ret (6 h) was 8.1%. It also gave a WBC (6 h) of 116.1 x10_2/uL, a KIDNEY_L (6 h) of 0.9 g and a KIDNEY_R (6 h) of 1 g. For the same molecule, the KIDNEY_TOTAL (6 h) was 1.9 g, the LIVER (6 h) was 9 g and the A/G (6 h) was 1.2. For the same molecule, the ALP (6 h) was 1487.4 IU/L, the ALT (6 h) was 39 IU/L and the AST (6 h) was 69.6 IU/L. The BUN (6 h) was 10.6 mg/dL, the CRE (6 h) was 0.1 mg/dL and the Ca (6 h) was 10.5 mg/dL. For the same molecule, the Cl (6 h) was 106.4 meq/L, the DBIL (6 h) was 0.002 mg/dL and the GLC (6 h) was 184.2 mg/dL. It also gave an IP (6 h) of 8.8 mg/dL, a K (6 h) of 4.4 meq/L and an LDH (6 h) of 154.4 IU/L. The Na (6 h) was 143.8 meq/L, the PL (6 h) was 141.4 mg/dL and the RALB (6 h) was 2.9 g/dL. The TBIL (6 h) was 0.022 mg/dL, the TC (6 h) was 80.2 mg/dL and the TG (6 h) was 72.2 mg/dL. For the same molecule, the TP (6 h) was 5.3 g/dL, the gamma-GTP (6 h) was 1.6 IU/L and the TERMINAL_BW (9 h) was 209.7 g. It also gave an APTT (9 h) of 22.9 s, a Bas (9 h) of 0% and an Eos (9 h) of 0.8%. It also gave a Fbg (9 h) of 294.2 mg/dL, a Hb (9 h) of 12.7 g/dL and a Ht (9 h) of 39.4%. The Lym (9 h) was 81.6%, the MCH (9 h) was 19.9 pg and the MCHC (9 h) was 32.1%. For the same molecule, the MCV (9 h) was 61.7 fL, the Mono (9 h) was 2% and the Neu (9 h) was 15.2%. It also gave a PT (9 h) of 16.2 s, a Plat (9 h) of 121.4 x10_4/uL and an RBC (9 h) of 639.2 x10_4/ul. For the same molecule, the Ret (9 h) was 8.3%, the WBC (9 h) was 95.7 x10_2/uL and the KIDNEY_L (9 h) was 0.9 g. The KIDNEY_R (9 h) was 0.9 g, the KIDNEY_TOTAL (9 h) was 1.9 g and the LIVER (9 h) was 9.1 g. The A/G (9 h) was 1.1, the ALP (9 h) was 1667.4 IU/L and the ALT (9 h) was 36.2 IU/L. For the same molecule, the AST (9 h) was 65.8 IU/L, the BUN (9 h) was 12.2 mg/dL and the CRE (9 h) was 0.1 mg/dL. It also gave a Ca (9 h) of 10.5 mg/dL, a Cl (9 h) of 105 meq/L and a DBIL (9 h) of 0 mg/dL. It also gave a GLC (9 h) of 195.8 mg/dL, an IP (9 h) of 9.8 mg/dL and a K (9 h) of 4.5 meq/L. It also gave an LDH (9 h) of 147 IU/L, a Na (9 h) of 143.8 meq/L and a PL (9 h) of 120.2 mg/dL. The RALB (9 h) was 2.8 g/dL, the TBIL (9 h) was 0.012 mg/dL and the TC (9 h) was 64.8 mg/dL. It also gave a TG (9 h) of 64.2 mg/dL, a TP (9 h) of 5.3 g/dL and a gamma-GTP (9 h) of 1.4 IU/L. It also gave a TERMINAL_BW (24 h) of 219.9 g, an APTT (24 h) of 21.2 s and a Bas (24 h) of 0%. For the same molecule, the Eos (24 h) was 1%, the Fbg (24 h) was 307 mg/dL and the Hb (24 h) was 12.9 g/dL. It also gave a Ht (24 h) of 39.6%, a Lym (24 h) of 77.8% and an MCH (24 h) of 21.2 pg. For the same molecule, the MCHC (24 h) was 32.7%, the MCV (24 h) was 64.7 fL and the Mono (24 h) was 3%. For the same molecule, the Neu (24 h) was 17.4%, the PT (24 h) was 16.4 s and the Plat (24 h) was 115.1 x10_4/uL. The RBC (24 h) was 612 x10_4/ul, the Ret (24 h) was 7.6% and the WBC (24 h) was 103.4 x10_2/uL. For the same molecule, the KIDNEY_L (24 h) was 1 g, the KIDNEY_R (24 h) was 1 g and the KIDNEY_TOTAL (24 h) was 2 g. For the same molecule, the LIVER (24 h) was 10.1 g, the A/G (24 h) was 1.1 and the ALP (24 h) was 1636.2 IU/L. The ALT (24 h) was 44 IU/L, the AST (24 h) was 74.2 IU/L and the BUN (24 h) was 16.6 mg/dL. For the same molecule, the CRE (24 h) was 0.2 mg/dL, the Ca (24 h) was 10.7 mg/dL and the Cl (24 h) was 105.6 meq/L. The DBIL (24 h) was 0 mg/dL, the GLC (24 h) was 196.4 mg/dL and the IP (24 h) was 7.1 mg/dL. For the same molecule, the K (24 h) was 4.4 meq/L, the LDH (24 h) was 179.8 IU/L and the Na (24 h) was 142 meq/L. It also gave a PL (24 h) of 135.2 mg/dL, an RALB (24 h) of 2.8 g/dL and a TBIL (24 h) of 0.004 mg/dL. For the same molecule, the TC (24 h) was 75.2 mg/dL, the TG (24 h) was 76.8 mg/dL and the TP (24 h) was 5.4 g/dL. For the same molecule, the gamma-GTP (24 h) was 1.4 IU/L.
